Values belong to the compound of their own block, whether it stands above or below them.
Tests used:
[1] = tested on: thrombin-binding aptamer (TBA) (DNA, G4) GGTTGGTGTGGTTGG; assay: fluorescence of dye-aptamer complex; details: 300 mM NaCl, 5 mM MgCl2, 10 mM KCl; 20 mM Tris-Cl pH 7.5, 25 °C; dye 25 nM, aptamer 10 nM
[2] = tested on: theophylline aptamer (RNA, aptamer) GGUGAUACCAGCAUCGUCUUGAUGCCCUUGGCAGCACC; assay: fluorescence of dye-aptamer complex; details: 140 mM NaCl, 5 mM KCl, 5 mM MgCl2; 20 mM Tris-Cl pH 7.5, 25 °C; dye 25 nM, aptamer 10 nM
[3] = tested on: ATP aptamer (DNA, aptamer) ATAGCGGAGGAAGGATACCTGGGGGAGTATAT; assay: fluorescence of dye-aptamer complex; details: 300 mM NaCl, 5 mM MgCl2, 10 mM KCl; 20 mM Tris-Cl pH 7.5, 25 °C; dye 25 nM, aptamer 10 nM
[4] = tested on: theophylline aptamer (RNA, aptamer) GGUGAUACCAGCAUCGUCUUGAUGCCCUUGGCAGCACC; assay: fluorescence change of staining dye; details: 140 mM NaCl, 5 mM KCl, 5 mM MgCl2, 20 mM Tris-Cl pH 7.5, 25 °C, aptamer 10 nM
[5] = tested on: ATP aptamer (DNA, aptamer) ATAGCGGAGGAAGGATACCTGGGGGAGTATAT; assay: fluorescence change of staining dye; details: 300 mM NaCl, 5 mM MgCl2, 10 mM KCl, 20 mM Tris-Cl pH 7.5, 25 °C, Hoechst 33258 25 nM as indicator, aptamer 10 nM

Compound: CN1CCN(c2ccc3nc(-c4ccc5nc(-c6ccc(O)cc6)[nH]c5c4)[nH]c3c2)CC1
binding [3]: yes

Compound: C[n+]1c(C=C2C=CN(CCC[N+](C)(C)CCC[N+](C)(C)CCCN3C=CC(=Cc4oc5ccccc5[n+]4C)c4ccccc43)c3ccccc32)oc2ccccc21
binding [1]: yes | binding [3]: yes

Compound: Cn1c(=O)c2[nH]cnc2n(C)c1=O
binding ([4]; TO or SYBR Green 25 nM as indicator): yes

Compound: Cn1c(=O)c2c(ncn2C)n(C)c1=O
binding ([4]; TO 25 nM as indicator, huge excess of caffeine): no

Compound: Nc1ncnc2c1ncn2[C@@H]1O[C@H](COP(=O)(O)OP(=O)(O)OP(=O)(O)O)[C@@H](O)[C@H]1O
binding [5]: yes

More lines, now with the values ahead:

binding [1]: yes | binding [2]: yes
Compound: CCCN(CCCN(C)C)c1cc(C=C2Sc3ccccc3N2C)c2ccccc2[n+]1-c1ccccc1

binding [1]: yes | binding [2]: yes
Compound: CN1C(=Cc2cc[n+](C)c3ccccc23)Sc2ccccc21

binding ([5]; ~5% change, within error): no
Compound: Nc1nc2c(ncn2[C@@H]2O[C@H](COP(=O)(O)OP(=O)(O)OP(=O)(O)O)[C@@H](O)[C@H]2O)c(=O)[nH]1

Source: paper PMC3474971 (2012)
